{
  "source": "ChEMBL document CHEMBL1201862",
  "about": "“PubChem BioAssay data set” (2004)",
  "key": {"[1]": {"target": "Voltage-gated inwardly rectifying potassium channel KCNH2 (Homo sapiens, UniProt Q12809)", "sequence (Q12809 whole entry)": "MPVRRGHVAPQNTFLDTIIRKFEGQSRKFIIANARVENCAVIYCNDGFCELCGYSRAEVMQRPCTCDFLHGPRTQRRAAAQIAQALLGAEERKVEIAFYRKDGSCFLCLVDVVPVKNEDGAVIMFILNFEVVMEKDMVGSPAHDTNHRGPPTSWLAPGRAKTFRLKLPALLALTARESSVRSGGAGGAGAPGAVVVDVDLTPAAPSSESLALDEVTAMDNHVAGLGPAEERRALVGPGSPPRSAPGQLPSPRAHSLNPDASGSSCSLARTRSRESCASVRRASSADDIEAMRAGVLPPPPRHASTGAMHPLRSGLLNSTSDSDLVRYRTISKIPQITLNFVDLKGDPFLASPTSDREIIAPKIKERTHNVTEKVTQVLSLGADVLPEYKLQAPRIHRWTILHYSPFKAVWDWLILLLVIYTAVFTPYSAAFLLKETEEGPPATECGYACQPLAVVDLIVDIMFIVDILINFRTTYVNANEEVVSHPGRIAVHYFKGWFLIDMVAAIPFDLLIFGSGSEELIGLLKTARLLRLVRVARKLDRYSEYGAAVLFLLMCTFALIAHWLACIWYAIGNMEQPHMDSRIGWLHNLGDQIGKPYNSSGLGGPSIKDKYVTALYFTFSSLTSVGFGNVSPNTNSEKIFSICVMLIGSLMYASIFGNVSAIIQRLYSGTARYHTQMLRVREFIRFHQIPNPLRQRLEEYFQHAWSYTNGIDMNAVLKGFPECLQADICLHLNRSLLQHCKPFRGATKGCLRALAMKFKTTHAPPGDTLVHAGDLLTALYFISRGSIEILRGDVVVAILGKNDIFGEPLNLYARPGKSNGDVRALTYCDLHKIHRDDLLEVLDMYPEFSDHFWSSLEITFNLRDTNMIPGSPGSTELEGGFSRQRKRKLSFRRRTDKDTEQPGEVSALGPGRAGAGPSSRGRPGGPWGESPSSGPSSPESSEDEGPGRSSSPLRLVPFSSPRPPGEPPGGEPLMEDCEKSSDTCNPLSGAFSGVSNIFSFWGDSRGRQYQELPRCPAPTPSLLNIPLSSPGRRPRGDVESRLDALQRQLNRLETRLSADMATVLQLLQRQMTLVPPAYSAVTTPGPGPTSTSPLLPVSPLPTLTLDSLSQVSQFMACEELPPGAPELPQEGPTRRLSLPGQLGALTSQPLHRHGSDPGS", "test": "hERG protection from proarrhythmic block, potency, dose response, cell-based, thallium flux (AID 2121)", "format": "ADME"}, "[2]": {"target": "T1, Aryl hydrocarbon receptor (Homo sapiens, UniProt P35869)", "T1 sequence (P35869 whole entry)": "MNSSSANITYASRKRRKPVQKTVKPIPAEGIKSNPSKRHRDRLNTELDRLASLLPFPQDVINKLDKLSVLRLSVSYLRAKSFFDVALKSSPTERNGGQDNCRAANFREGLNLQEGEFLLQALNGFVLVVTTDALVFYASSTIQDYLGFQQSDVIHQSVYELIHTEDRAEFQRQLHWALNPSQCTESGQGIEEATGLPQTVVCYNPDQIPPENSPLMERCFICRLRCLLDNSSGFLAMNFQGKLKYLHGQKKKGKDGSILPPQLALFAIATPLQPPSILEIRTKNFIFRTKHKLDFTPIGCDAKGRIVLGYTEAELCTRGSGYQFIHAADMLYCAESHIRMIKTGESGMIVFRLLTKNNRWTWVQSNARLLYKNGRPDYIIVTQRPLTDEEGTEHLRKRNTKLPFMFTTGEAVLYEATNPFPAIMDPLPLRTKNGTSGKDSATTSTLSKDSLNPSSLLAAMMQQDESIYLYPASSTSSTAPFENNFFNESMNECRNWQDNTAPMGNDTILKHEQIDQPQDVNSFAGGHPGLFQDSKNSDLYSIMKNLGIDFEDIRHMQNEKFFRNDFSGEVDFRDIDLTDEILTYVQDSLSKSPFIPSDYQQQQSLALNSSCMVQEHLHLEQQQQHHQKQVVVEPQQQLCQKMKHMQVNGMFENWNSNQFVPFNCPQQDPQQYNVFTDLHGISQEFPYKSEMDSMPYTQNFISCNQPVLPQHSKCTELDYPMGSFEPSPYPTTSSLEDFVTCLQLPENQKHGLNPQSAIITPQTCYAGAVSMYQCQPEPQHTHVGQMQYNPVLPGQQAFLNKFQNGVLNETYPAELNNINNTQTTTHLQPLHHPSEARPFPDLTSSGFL", "test": "Luminescence-based cell-based high throughput dose response assay for activators of the Aryl Hydrocarbon Receptor (AHR). [Related pubchem assays: 2796 (Primary screen (AHR activators in singlicate)), 2845 (Confirmation screen (AHR activators in triplicate)), 434939 (Counterscreen (PXR activators in triplicate)), 2804 (Summary (AHR activators))]", "format": "ADME"}, "[3]": {"target": "T2, Zinc finger protein mex-5 (Caenorhabditis elegans, UniProt Q9XUB2)", "T2 sequence (Q9XUB2 whole entry)": "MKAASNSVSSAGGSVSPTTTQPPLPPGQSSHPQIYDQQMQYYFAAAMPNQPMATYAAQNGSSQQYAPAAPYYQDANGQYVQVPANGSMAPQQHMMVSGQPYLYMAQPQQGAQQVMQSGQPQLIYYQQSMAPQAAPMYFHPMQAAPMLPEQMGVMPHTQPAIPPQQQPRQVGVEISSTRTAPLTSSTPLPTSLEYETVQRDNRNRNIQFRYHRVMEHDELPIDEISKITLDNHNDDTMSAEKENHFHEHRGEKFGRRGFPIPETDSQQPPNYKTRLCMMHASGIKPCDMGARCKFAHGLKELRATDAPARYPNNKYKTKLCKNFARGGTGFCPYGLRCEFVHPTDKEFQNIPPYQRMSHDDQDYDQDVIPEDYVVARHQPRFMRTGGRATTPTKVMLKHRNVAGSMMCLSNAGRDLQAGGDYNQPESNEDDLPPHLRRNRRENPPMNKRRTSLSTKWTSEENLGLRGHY", "test": "MEX-5/TCR-2 RNA interaction inhibitors, dose response, biochemical, C. elegans, fluorescence polarization (AID 1960)"}, "Caspase-6": {"target": "T3, Caspase-6 (Homo sapiens, UniProt P55212)", "T3 sequence (P55212 whole entry)": "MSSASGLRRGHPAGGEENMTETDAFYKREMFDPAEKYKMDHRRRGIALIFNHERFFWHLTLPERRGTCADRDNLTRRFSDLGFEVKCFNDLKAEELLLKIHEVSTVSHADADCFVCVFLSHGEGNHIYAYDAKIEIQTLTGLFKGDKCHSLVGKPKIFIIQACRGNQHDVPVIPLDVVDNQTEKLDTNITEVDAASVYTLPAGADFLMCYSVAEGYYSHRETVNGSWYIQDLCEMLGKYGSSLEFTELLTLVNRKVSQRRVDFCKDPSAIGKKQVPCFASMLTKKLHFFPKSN", "test": "human caspase-6 inhibitors, dose response, biochemical, VEID-R110 fluorescence, cherry-pick (AID 720632)"}, "[4]": {"target": "Bifunctional protein GlmU (Mycobacterium tuberculosis, UniProt P9WMN3)", "sequence (P9WMN3 whole entry)": "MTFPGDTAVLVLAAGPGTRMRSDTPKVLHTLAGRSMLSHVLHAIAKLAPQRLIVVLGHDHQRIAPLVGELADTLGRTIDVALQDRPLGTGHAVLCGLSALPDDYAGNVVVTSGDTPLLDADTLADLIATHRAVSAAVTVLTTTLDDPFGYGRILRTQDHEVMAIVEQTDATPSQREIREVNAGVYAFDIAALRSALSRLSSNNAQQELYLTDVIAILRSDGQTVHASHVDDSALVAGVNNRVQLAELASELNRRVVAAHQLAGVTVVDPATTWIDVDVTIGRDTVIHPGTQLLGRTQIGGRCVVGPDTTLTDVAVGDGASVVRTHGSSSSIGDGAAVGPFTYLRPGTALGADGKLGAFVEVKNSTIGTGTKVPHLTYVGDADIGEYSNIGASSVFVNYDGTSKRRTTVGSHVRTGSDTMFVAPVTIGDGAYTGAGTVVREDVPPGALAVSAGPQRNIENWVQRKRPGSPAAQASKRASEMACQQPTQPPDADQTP", "test": "Inhibitors of Mycobacterial Glucosamine-1-phosphate acetyl transferase (GlmU). Secondary screen.", "set-up": "species or system Mycobacterium tuberculosis H37Rv"}, "Genome polyprotein": {"target": "Genome polyprotein (dengue virus type 2, UniProt P29990)", "sequence (P29990 2492-3391 limits assumed)": "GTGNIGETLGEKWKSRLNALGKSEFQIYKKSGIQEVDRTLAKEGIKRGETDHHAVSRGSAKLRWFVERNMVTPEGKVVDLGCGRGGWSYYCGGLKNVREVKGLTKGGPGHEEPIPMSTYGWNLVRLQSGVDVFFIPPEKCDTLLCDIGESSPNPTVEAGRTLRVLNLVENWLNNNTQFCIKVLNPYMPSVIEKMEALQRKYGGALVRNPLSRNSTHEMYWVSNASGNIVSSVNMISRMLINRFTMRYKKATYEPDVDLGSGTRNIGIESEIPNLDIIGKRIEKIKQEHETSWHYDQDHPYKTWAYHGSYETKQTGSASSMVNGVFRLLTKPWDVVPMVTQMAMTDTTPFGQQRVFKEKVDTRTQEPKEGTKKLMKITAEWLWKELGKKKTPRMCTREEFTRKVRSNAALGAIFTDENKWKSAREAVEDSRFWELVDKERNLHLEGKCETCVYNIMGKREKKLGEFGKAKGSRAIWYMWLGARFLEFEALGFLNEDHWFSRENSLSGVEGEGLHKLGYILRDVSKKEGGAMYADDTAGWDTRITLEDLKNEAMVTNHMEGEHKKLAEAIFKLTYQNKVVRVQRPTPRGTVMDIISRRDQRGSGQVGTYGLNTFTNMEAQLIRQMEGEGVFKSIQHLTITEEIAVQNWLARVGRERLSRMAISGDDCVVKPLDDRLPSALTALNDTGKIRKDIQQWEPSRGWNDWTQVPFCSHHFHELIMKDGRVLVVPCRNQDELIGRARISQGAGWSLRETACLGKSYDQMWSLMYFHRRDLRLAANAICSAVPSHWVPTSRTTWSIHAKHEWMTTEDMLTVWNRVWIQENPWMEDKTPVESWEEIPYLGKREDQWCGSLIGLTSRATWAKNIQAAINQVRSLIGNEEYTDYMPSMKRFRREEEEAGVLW", "test": "Dengue-2 NS5 methyltransferase inhibitors, primary screen, biochemical, confirmation dose response (AID 588689)", "format": "functional"}, "[5]": {"target": "T4, RNA-binding protein pos-1 (Caenorhabditis elegans, UniProt G5EF15)", "T4 sequence (G5EF15 whole entry)": "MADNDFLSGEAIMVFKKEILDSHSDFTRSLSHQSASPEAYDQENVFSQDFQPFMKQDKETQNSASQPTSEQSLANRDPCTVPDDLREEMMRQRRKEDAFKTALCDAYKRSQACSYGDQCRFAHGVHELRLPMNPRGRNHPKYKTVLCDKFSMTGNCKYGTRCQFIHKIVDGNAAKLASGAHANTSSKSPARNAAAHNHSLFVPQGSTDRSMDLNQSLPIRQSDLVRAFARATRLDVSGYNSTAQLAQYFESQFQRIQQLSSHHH", "test": "inhibitors of POS-1/mex-3 RNA binding, dose response, biochemical, fluorescence polarization (AID 1964);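 note: purified POS-1 fused to maltose binding protein made in E. coli; potency of compounds blocking POS-1 binding to fluorescent RNA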"}, "[6]": {"target": "Induced myeloid leukemia cell differentiation protein Mcl-1 (Homo sapiens, UniProt Q07820)", "sequence (Q07820 whole entry)": "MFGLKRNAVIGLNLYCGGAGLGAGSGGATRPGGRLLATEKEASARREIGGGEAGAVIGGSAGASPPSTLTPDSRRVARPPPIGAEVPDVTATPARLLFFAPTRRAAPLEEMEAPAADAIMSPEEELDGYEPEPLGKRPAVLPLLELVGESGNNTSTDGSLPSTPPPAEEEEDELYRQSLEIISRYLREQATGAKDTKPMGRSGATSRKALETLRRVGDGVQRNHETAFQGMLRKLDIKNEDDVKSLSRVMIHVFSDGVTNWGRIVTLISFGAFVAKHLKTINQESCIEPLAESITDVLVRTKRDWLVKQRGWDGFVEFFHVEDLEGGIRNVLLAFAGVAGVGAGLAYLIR", "format": "functional"}, "Vero [7]": {"tested_on": "Vero", "test": "Vero cell cytotoxicity, cytotoxicity control for flavivirus capping enzyme inhibitors (AID 588742)", "format": "functional", "settings": "Chlorocebus sabaeus"}, "Protein skinhead-1": {"target": "T5, Protein skinhead-1 (Caenorhabditis elegans, UniProt P34707)", "T5 sequence (P34707 whole entry)": "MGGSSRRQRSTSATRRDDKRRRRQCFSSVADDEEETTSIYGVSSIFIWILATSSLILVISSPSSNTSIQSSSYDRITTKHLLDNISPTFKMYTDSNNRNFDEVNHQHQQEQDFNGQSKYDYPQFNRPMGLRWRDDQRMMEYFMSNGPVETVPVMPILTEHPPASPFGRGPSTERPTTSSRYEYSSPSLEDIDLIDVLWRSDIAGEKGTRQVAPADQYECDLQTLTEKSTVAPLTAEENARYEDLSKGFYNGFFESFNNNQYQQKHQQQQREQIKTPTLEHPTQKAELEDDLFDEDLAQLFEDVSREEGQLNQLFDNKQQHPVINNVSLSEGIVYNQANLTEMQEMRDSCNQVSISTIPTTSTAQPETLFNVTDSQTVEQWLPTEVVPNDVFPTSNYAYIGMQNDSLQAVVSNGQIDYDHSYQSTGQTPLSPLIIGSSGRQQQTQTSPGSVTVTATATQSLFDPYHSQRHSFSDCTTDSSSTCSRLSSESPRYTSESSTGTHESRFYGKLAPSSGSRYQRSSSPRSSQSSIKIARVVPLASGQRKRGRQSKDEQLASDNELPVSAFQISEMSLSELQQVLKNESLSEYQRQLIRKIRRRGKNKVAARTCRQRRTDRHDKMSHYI", "format": "functional"}, "[8]": {"target": "Sphingosine 1-phosphate receptor 2 (Homo sapiens, UniProt O95136)", "sequence (O95136 whole entry)": "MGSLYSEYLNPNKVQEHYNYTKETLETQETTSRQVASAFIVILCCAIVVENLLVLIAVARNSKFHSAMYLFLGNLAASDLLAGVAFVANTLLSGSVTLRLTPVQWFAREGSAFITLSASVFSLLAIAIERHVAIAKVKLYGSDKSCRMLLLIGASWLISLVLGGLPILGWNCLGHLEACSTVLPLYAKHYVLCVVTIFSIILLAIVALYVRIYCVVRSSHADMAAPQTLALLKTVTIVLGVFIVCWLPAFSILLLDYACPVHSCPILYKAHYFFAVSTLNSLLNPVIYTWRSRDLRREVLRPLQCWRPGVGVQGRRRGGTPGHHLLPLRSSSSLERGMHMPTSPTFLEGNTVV", "test": "Dose Response Cell Based Assay for Antagonists of the S1P2 Receptor. [Related pubchem assays: 856, 736 ]", "format": "functional"}, "[9]": {"test": "inhibitors of PGC1a acetylation in cells, dose response, cell-based, cherry-picked samples (AID 720514);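 note: potency may reflect raised or lowered acetylation signal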", "format": "functional"}, "Vero [10]": {"tested_on": "Vero", "test": "host cell cytotoxicity of antiviral hits, dose response, cytotoxicity control for West Nile virus antiviral project, secondary assay (AID 1650)", "format": "functional", "settings": "Chlorocebus sabaeus"}, "Bcl-2-related protein A1 [11]": {"target": "T6, Bcl-2-related protein A1 (Mus musculus, UniProt Q07440)", "T6 sequence (Q07440 whole entry)": "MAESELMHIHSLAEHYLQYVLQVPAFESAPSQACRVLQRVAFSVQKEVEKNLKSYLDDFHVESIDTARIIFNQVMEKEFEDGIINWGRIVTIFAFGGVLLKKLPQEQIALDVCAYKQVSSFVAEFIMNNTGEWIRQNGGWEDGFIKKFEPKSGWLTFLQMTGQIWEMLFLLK", "test": "Bfl-1 inhibitors, primary screen, biochemical, fluorescence polarization, FITC-Bid, mouse (AID 432)"}, "[12]": {"target": "T7, Tyrosine-protein phosphatase non-receptor type 7 (Homo sapiens, UniProt P35236)", "T7 sequence (P35236 whole entry)": "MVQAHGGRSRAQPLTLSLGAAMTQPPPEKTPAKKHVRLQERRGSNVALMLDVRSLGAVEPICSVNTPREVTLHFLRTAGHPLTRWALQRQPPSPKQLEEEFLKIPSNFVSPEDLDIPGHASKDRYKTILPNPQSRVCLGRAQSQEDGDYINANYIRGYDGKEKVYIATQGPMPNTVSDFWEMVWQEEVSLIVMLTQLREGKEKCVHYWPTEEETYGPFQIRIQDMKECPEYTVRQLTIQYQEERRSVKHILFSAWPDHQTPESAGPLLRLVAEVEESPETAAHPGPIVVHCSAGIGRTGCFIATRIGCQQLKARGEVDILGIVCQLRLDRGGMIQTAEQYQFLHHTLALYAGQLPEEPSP", "test": "inhibitors of human HePTP phosphatase, […], biochemical, absorbance, leukemia target (AID 521)", "format": "functional"}, "Bcl-2-related protein A1 [13]": {"target": "T6, Bcl-2-related protein A1", "test": "Bfl-1 binding inhibitors, SAR follow-up, biochemical, fluorescence polarization (AID 1070)"}, "Bcl-2-related protein A1 [14]": {"target": "T6, Bcl-2-related protein A1", "test": "Bfl-1 inhibitors blocking BH3 peptide binding, confirmation, biochemical, TR-FRET, mouse Bfl-1 (AID 621);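 note: TR-FRET binding of GST-Bfl-1 to FITC-labelled Bid peptide via terbium antibody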"}, "[15]": {"target": "Glyceraldehyde-3-phosphate dehydrogenase (Homo sapiens, UniProt P04406)", "sequence (P04406 whole entry)": "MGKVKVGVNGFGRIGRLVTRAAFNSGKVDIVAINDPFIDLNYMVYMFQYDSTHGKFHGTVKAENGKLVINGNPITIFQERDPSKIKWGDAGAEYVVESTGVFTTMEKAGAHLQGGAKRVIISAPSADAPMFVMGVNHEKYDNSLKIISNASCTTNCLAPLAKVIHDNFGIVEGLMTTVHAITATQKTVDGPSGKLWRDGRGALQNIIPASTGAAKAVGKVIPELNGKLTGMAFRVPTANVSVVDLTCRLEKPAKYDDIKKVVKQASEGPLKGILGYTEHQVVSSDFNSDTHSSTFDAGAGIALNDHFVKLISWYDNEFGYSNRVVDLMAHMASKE"}, "[16]": {"target": "E3 ubiquitin-protein ligase Mdm2 (Homo sapiens, UniProt Q00987)", "sequence (Q00987 whole entry)": "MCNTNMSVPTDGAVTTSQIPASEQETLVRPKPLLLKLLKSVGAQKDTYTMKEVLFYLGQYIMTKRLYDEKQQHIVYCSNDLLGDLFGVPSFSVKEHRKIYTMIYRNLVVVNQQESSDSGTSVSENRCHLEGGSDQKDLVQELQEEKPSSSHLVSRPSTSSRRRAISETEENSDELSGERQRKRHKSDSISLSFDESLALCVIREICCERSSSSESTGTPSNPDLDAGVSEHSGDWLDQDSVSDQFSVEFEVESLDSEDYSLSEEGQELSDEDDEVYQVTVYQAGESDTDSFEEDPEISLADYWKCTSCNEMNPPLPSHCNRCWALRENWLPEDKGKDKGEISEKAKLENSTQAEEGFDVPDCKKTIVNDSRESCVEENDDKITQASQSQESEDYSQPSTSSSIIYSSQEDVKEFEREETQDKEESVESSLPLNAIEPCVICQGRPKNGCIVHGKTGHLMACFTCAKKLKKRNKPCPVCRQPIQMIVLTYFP", "test": "enhancers of MDM2-luciferase reporter signal, concentration-effect titration, project on inhibitors of MDM2 ubiquitin ligase, cellular assay, luminescent readout, 384-well plate format (AID 1394);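 note: MDM2 E3 inhibitors raise luminescence so EC50 is for signal enhancement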", "format": "functional"}},
  "note": "Values joined by “and” are separate entries in the source; they are usually repeats but may differ in a detail not shown here. Identical values can stand only once. Active and inactive are the calls of the source.",
  "data": [
    {"smiles": "CCCn1c(SCC(N)=O)nc2c(c1=O)C1(CCCC1)Cc1ccccc1-2", "values": [
      {"measurement": "EC50", "setting": "[1]", "value": "4.67 µM (active)"}
    ]},
    {"smiles": "CSc1ncc(C(=O)Nc2ccc(Cl)cc2)c(C)n1", "values": [
      {"measurement": "EC50", "setting": "[2]", "value": "0.0222 µM (active)"}
    ]},
    {"smiles": "O=c1ccc2[n+]([O-])c3ccc(O)cc3oc-2c1", "values": [
      {"measurement": "EC50", "setting": "[3]", "value": "37.7 µM (active)"},
      {"measurement": "AC50", "setting": "Caspase-6", "value": "0.285 µM (active)"},
      {"measurement": "IC50", "setting": "[4]", "value": "59.4 µM (active)"},
      {"measurement": "IC50", "setting": "Genome polyprotein", "value": "1.61 µM (active)"},
      {"measurement": "EC50", "setting": "[5]", "value": "> 300 µM (not active)"},
      {"measurement": "IC50", "setting": "[6]", "value": "10.1 µM (not active)"},
      {"measurement": "CC50", "setting": "Vero [7]", "value": "> 40 µM (active)"}
    ]},
    {"smiles": "Cc1ccc(NC2=Nc3ccccc3N3C2=Nc2c(c(C)nn2-c2ccccc2)C3c2ccc(O)c(O)c2)cc1", "note": "(centres undefined)", "values": [
      {"measurement": "IC50", "setting": "Protein skinhead-1", "value": "> 100 µM (inactive)"},
      {"measurement": "IC50", "setting": "[8]", "value": "4.5 µM (active)"}
    ]},
    {"smiles": "CCOC(=O)C(CC)(CC)C(=O)/C=C/c1ccc(Br)cc1", "values": [
      {"measurement": "AC50", "setting": "[9]", "value": "20.6 µM (active)"},
      {"measurement": "CC50", "setting": "Vero [10]", "value": "40.6 µM (active)"}
    ]},
    {"smiles": "COc1ccc2nc(O)c(-c3noc(-c4ccc(F)cc4)n3)cc2c1", "values": [
      {"measurement": "IC50", "setting": "Bcl-2-related protein A1 [11]", "value": "6.15 µM (active)"},
      {"measurement": "IC50", "setting": "[12]", "value": "2.18 µM (active)"},
      {"measurement": "IC50", "setting": "Bcl-2-related protein A1 [13]", "value": "3.85 µM (active)"},
      {"measurement": "IC50", "setting": "Bcl-2-related protein A1 [14]", "value": "4.45 µM (active) and 3.6 µM (active)"},
      {"measurement": "IC50", "setting": "[15]", "value": "> 100 µM (not active)"}
    ]},
    {"smiles": "COc1ccc(CCNC(=O)COC(=O)c2cnc(C)cn2)cc1OC", "values": [
      {"measurement": "EC50", "setting": "[16]", "value": "0.17 µM (not active)"}
    ]}
  ]
}
